# Test system: Vaccinia virus
# Experiment: Cytopathogenicity against vaccinia virus
# Type: functional
# Details: Orthopoxvirus vaccinia
compound,measurement,value
C=CSC[C@H]1OC(n2cnc3c(N)ncnc32)[C@H](O)[C@@H]1O (stereo partly specified),MIC,30 µM

# Source: ChEMBL document CHEMBL1136374, “Inactivation of S-adenosyl-L-homocysteine hydrolase with novel 5'-thioadenosine derivatives. Antiviral effects” (Bioorg Med Chem Lett, 2003)
